Laboratory results reported in patent US20110160311A1, “Sweetness Enhancers, Compositions Thereof, and Methods for Use” (The Coca-Cola Company, priority 2009, published 2011).

What was measured:
[1] = Sweetness detection threshold level in water, multi-sip and swallow taste method; type: in vivo, human; settings: for Sweetness Detection Threshold Level: in water at room temperature
Text: As used herein, the terms “sweetness threshold,” “sweetness recognition threshold,” and “sweetness detection threshold” are understood to mean the level at which the lowest known concentration of a certain sweet compound that is perceivable by the human sense of taste and it can vary from person to person. For example, a typical sweetness threshold level for sucrose in water can be 0.5%.
Further for example, the at least one sweetness enhancer to be used can be assayed in water at least 25% lower and at least 25% higher than the sucrose detection level of 0.5% in water to determine the sweetness threshold level.
(§1) A first sip (approximately 2.2 mL) of a ca. 20 mL control composition was taken and swallowed. After waiting for a time ranging from 15 to 25 seconds, a second sip of control composition was taken and swallowed, and the sweetness and/or taste of the control composition was noted. After waiting for a time ranging from 15 to 25 seconds, these steps were repeated with a comparative composition. The sweetness and taste differences between the control and the comparative composition were noted. For each tested composition, this cycle was repeated once to confirm the initial findings. All samples were measured at average 23.0° C.±1° C. between samples for consistent comparison and to minimize any effects of temperature on the perceived taste or sweetness of the composition.
(§2) To perform the taste test, three sweetener samples were paired with one additive and taste tested as described above. A three minute break was taken before tasting another three sweetener samples paired with a different additive. Up to 10 additives per day were used to minimize a fatigue factor. Before tasting, at least 1.5 hours elapsed after ingestion of any food, drink or nicotine. The tests were repeated on a different date to validate the initial findings.
The sweetness detection threshold levels for 21 entities were measured by a single assessor in water at room temperature according to the multi-sip and swallow taste method described herein.

[2] = Sweetness enhancement of glucose, fructose or sucrose at 6% SE in water by additive at its threshold level; type: in vivo, human; parameters: key: T: Slight thicker-like sweetness (not intensity factor).; No difference; N(S+): No difference but slightly more sweet (0.5-0.75%); +S: More sweetness intensity (~1.0% SE); ++S: Much more sweetness intensity (~2.0% SE); settings: room temperature, additive at its Table 1 threshold level; for Sensory result versus FRU 55,000 ppm: fructose at 6% SE in water; for Sensory result versus GLU 99,000 ppm: glucose at 6% SE in water; for Sensory result versus SUC 60,000 ppm: sucrose at 6% SE in water
Description: as §1, §2
The twenty-one entities above were combined in a concentration at the sweetness detection threshold level listed in Table 1, with one of Glucose (GLU), Fructose (FRU), and Sucrose (SUG), each at a fixed SE (Sucrose Equivalents) level of 6%. The sweetness of the compositions was measured as described above at room temperature.

[3] = By-products of 500 ppm REB A after two months of storage in phosphoric acid at RT; type: physicochemical; settings: approximated concentration of by-product of 500 ppm REB A
[4] = estimation sweetness/off-taste threshold in water at room temperature (RT)
[5] = value is min. off-taste threshold

Molecule | Sweetness Detection Threshold Level ([1]; single assessor) | Sensory result versus FRU 55,000 ppm [2] | Sensory result versus GLU 99,000 ppm [2] | Sensory result versus SUC 60,000 ppm [2] | Sweetness Threshold Level [1, 4] | Levels After 2 Month of Storage [3] | Sweetness Threshold Level ([1]; in water at RT, value is max. level for solubility) | Sweetness Detection Threshold Level ([1]; value is max. level for solubility) | Sweetness Detection Threshold Level [1, 5]
C=C1C[C@@]23CC[C@H]4[C@@](C)(CCC[C@@]4(C)C(=O)O[C@@H]4O[C@H](CO)[C@@H](O)[C@H](O)[C@H]4O)[C@@H]2CC[C@]1(O[C@@H]1O[C@H](CO)[C@@H](O)[C@H](O[C@@H]2O[C@H](CO)[C@@H](O[C@H]4O[C@H](CO)[C@@H](O)[C@H](O)[C@H]4O)[C@H](O)[C@H]2O)[C@H]1O[C@@H]1O[C@H](CO)[C@@H](O)[C@H](O)[C@H]1O)C3 [13-[(2-O-β-D-glucopyranosyl-3-O-(4-O-α-D-glucopyranosyl)-β-D-glucopyranosyl-β-D-glucopyranosyl)oxy] kaur-16-en-18-oic acid β-D-glucopyranosyl ester] | 50 ppm | T | T | N | – | – | – | – | –
CC1=CC23CCC4C(C)(C(=O)OC5OC(CO)C(O)C(O)C5O)CCCC4(C)C2CCC1(OC1OC(CO)C(O)C(OC2OC(CO)C(O)C(O)C2O)C1OC1OC(CO)C(O)C(O)C1O)C3 [13-[(2-O-β-D-glucopyranosyl-3-O-β-D-glucopyranosyl-β-D-glucopyranosyl)oxy] kaur-15-en-18-oic acid β-D-glucopyranosyl ester] | 25 ppm | N(S+) (No difference but slightly more sweet (0.5-0.75%)) | N | N(S+) (No difference but slightly more sweet (0.5-0.75%)) | – | – | – | – | –
CC1=CC23CCC4C(C)(C(=O)O)CCCC4(C)C2CCC1(OC1OC(CO)C(O)C(OC2OC(CO)C(O)C(O)C2O)C1OC1OC(CO)C(O)C(O)C1O)C3 [13-[(2-O-β-D-glucopyranosyl-3-O-β-D-glucopyranosyl-β-D-glucopyranosyl)oxy] kaur-15-en-18-oic acid] | 35 ppm | N | N | N | 35 ppm | 1 ppm | – | – | –
CC1(C(=O)OC2OC(CO)C(O)C(O)C2O)CCCC2(C)C3CCC4(OC5OC(CO)C(O)C(OC6OC(CO)C(O)C(O)C6O)C5OC5OC(CO)C(O)C(O)C5O)CC3(CCC12)CC4(C)O [13-[(2-O-β-D-glucopyranosyl-3-O-β-D-glucopyranosyl-β-D-glucopyranosyl)oxy]-16-hydroxy kauran-18-oic acid β-D-glucopyranosyl ester] | 700 ppm | N | N | N | 700 ppm | 10 ppm | – | – | –
CC1(C(=O)O)CCCC2(C)C3CCC4(OC5OC(CO)C(O)C(OC6OC(CO)C(O)C(O)C6O)C5OC5OC(CO)C(O)C(O)C5O)CC3(CCC12)CC4(C)O [13-[(2-O-β-D-glucopyranosyl-3-O-β-D-glucopyranosyl-β-D-glucopyranosyl)oxy]-16-hydroxy kauran-18-oic acid] | – | N | N | N | – | 33 ppm | 500 ppm | 500 ppm | –
C=C1C[C@@]23CC[C@H]4[C@@](C)(CCC[C@@]4(C)C(=O)O[C@@H]4O[C@H](CO)[C@@H](O)[C@H](O)[C@H]4O)[C@@H]2CC[C@]1(O[C@@H]1O[C@H](CO)[C@@H](O)[C@H](O[C@@H]2O[C@H](CO)[C@@H](O)[C@H](O)[C@H]2O)[C@H]1O)C3 [13-[(3-O-β-D-glucopyranosyl-β-D-glucopyranosyl)oxy] kaur-16-en-18-oic acid β-D-glucopyranosyl ester] | 35 ppm | N | N | N | – | – | – | – | –
C=C1CC23CCC4C(C)(C(=O)OC5OC(CO)C(O)C(O)C5O)CCCC4(C)C2CCC1(O)C3 [13-hydroxy-kaur-16-en-18-oic acid β-D-glucopyranosyl ester] | – | N | N | N | – | – | – | – | 10 ppm
C[C@@]12CC[C@@H]3[C@@](CC[C@H]4[C@@]3(C)CCC[C@@]4(C)C(=O)OC3OC(CO)C(O)C(O)C3O)(CC1=O)C2 (stereo partly drawn) [13-methyl-16-oxo-17-norkauran-18-oic acid β-D-glucopyranosyl ester] | – | N | N | N | – | – | – | – | 15 ppm
C=C1C[C@@]23CC[C@H]4[C@@](C)(CCC[C@@]4(C)C(=O)O[C@@H]4O[C@H](CO)[C@@H](O)[C@H](O)[C@H]4O)[C@@H]2CC[C@]1(O[C@@H]1O[C@H](CO)[C@@H](O)[C@H](O)[C@H]1O[C@@H]1O[C@@H](C)[C@H](O)[C@@H](O)[C@H]1O)C3 [Dulcoside A] | 50 ppm | N | N | N | – | – | – | – | –
C[C@H](CC[C@@H](O[C@@H]1O[C@H](CO[C@@H]2O[C@H](CO)[C@@H](O)[C@H](O)[C@H]2O)[C@@H](O)[C@H](O)[C@H]1O[C@@H]1O[C@H](CO)[C@@H](O)[C@H](O)[C@H]1O)C(C)(C)O)[C@H]1CC[C@@]2(C)[C@@H]3CC=C4[C@@H](CC[C@H](O[C@@H]5O[C@H](CO[C@@H]6O[C@H](CO)[C@@H](O)[C@H](O)[C@H]6O)[C@@H](O)[C@H](O)[C@H]5O)C4(C)C)[C@]3(C)[C@H](O)C[C@]12C [Mogroside V] | 20 ppm | N | N | N | – | – | – | – | –
C=C1C[C@@]23CC[C@H]4[C@@](C)(CCC[C@@]4(C)C(=O)O[C@@H]4O[C@H](CO)[C@@H](O)[C@H](O)[C@H]4O)[C@@H]2CC[C@]1(O[C@@H]1O[C@H](CO)[C@@H](O)[C@H](O[C@@H]2O[C@H](CO)[C@@H](O)[C@H](O)[C@H]2O)[C@H]1O[C@@H]1O[C@H](CO)[C@@H](O)[C@H](O)[C@H]1O)C3 [Rebaudioside A] | 12.6 ppm | N | N | N | – | – | – | – | –
C=C1C[C@@]23CC[C@H]4[C@@](C)(CCC[C@@]4(C)C(=O)O[C@@H]4O[C@H](CO)[C@@H](O)[C@H](O)[C@H]4O[C@@H]4O[C@H](CO)[C@@H](O)[C@H](O)[C@H]4O)[C@@H]2CC[C@]1(O[C@@H]1O[C@H](CO)[C@@H](O)[C@H](O[C@@H]2O[C@H](CO)[C@@H](O)[C@H](O)[C@H]2O)[C@H]1O[C@@H]1O[C@H](CO)[C@@H](O)[C@H](O)[C@H]1O)C3 [Rebaudioside D] | 25 ppm | N | N | N(S+) (No difference but slightly more sweet (0.5-0.75%)) | – | – | – | – | –
C=C1C[C@@]23CC[C@H]4[C@@](C)(CCC[C@@]4(C)C(=O)OC4OC(C(=O)O)C(O)C(O)C4O)[C@@H]2CC[C@]1(O)C3 (stereo partly shown) [Steviol glucuronide] | 85 ppm | N | N | N | – | – | – | – | –
C=C1C[C@@]23CC[C@H]4[C@@](C)(CCC[C@@]4(C)C(=O)O)[C@@H]2CC[C@]1(O[C@@H]1O[C@H](CO)[C@@H](O)[C@H](O)[C@H]1O[C@@H]1O[C@H](CO)[C@@H](O)[C@H](O)[C@H]1O)C3 [Steviolbioside] | 50 ppm | N | N | N | – | – | – | – | –
C=C1C[C@@]23CC[C@H]4[C@@](C)(CCC[C@@]4(C)C(=O)O[C@@H]4O[C@H](CO)[C@@H](O)[C@H](O)[C@H]4O)[C@@H]2CC[C@]1(O[C@@H]1O[C@H](CO)[C@@H](O)[C@H](O)[C@H]1O[C@@H]1O[C@H](CO)[C@@H](O)[C@H](O)[C@H]1O)C3 [Stevioside] | 25 ppm | N | N | N | – | – | – | – | –
Rebaudioside F | 25 ppm | N | N | N(S+) (No difference but slightly more sweet (0.5-0.75%)) | – | – | – | – | –
